ED50 data for one compound are collected here from patent US4001429A, “1-Cyclopropyl-1-phenyl-ω-amino-1-alkanols and 1-lower-alkylacyl derivatives as analgetics” (A. H. Robins Company, Incorporated, priority 1975, dated 1977).

The structures appear in SMILES notation. Counter-ions that a name gives are not always drawn.

Experiment [1] concerns mice. Kind of experiment: analgesic activity in mice, modification of Nilsen's method. It is filed as in vivo. As to conditions: Mus musculus, ip; administered intraperitoneally to mice; read-out: ED50 analgetic dose. The method, then:
The analgesic activity of the 1-cyclopropyl-1-alkanoyloxy-1-phenyl-ω-amino alkane compounds of this invention were determined by a modification of Nilsen's method [Funderburk, W. H., et al, Arch. Int.

Experiment [2] deals with depressant effects which are induced in mice by tetrabenazine. Description: blocking the depressant effects induced in mice by intravenous tetrabenazine (modification of Englehardt et al.). Type of experiment: in vivo. Particulars: Mus musculus, IP. The method, then: The activity of the compounds was determined by their administration intraperitoneally to mice and their effectiveness in blocking the depressant effects which are induced in mice by the intravenous administration of 2-oxo-3-insobutyl-9,10-dimethoxy-1,2,3,4,6,7-hexahydro-11bh-benzo[a]quinolizine (tetrabenazine). The procedure used was a modification of Englehardt, E. L. et al, J. Med. Chem. 11 (2), 325(1968). The ED50 values of the compounds are given in Table I; the compounds of Examples 3, 5, 7 and 8 are the preferred compounds.

As usually defined, the ED50 is the dose that gives a 50% effect, or the effect in half of the subjects.

For the compound `CCC(=O)OC(CCN(C)C)(c1ccccc1)C1CC1` (centres unmarked) [Example 10, 1-Cyclopropyl-3-dimethylamino-1phenyl-1-propionyloxypropane Hydrochloride], the ED50 in experiment [1] came to 14.2 mg/kg; in experiment [2] it was 7.7 mg/kg.
